The target in this experiment is ACCase. The following applies: read-out: I50, R biotype, both substitutions found, zygosity not given, stated gain, pH 8.3, 34 °C, 1.5 mM ATP, 5 mM MgCl2, 15 mM NaH14CO3, 5 mM acetyl-CoA. From the text:
ATP-dependent NaH14CO3 incorporation into acid-stable product on ACCase

Where two headings read alike, the source gives them in different places.

`C[C@@H](Oc1ccc(Oc2ccc(C#N)cc2F)cc1)C(=O)O` [cyhalofop acid]: the IC50 (table prints the butyl ester, methods list the acid) stood at 77.7 µM.
In the case of `CC(Oc1ccc(Oc2nc3ccc(Cl)cc3o2)cc1)C(=O)O` (stereo not drawn) [Fenoxaprop acid], where the note is “table prints the ethyl ester, methods state the acid”, the IC50 is 7.85 µM.
As to `CCON=C(CC)C1=C(O)CC(c2c(C)cc(C)cc2C)CC1=O` (stereo not drawn) [tralkoxydim], the IC50 is 8.81 µM.
For the molecule `CC(Oc1ccc(Oc2ccc(Cl)cc2Cl)cc1)C(=O)O` (stereo not drawn) [diclofop acid], the IC50 (table prints the methyl ester, methods list the acid) was 7.14 µM.
Turning to `CCCC(=NOCC)C1=C(O)CC(CC(C)SCC)CC1=O` (stereo not drawn) [sethoxydim], the IC50 was 1500 µM.
Still for that read-out and setting: with `CCc1cc(C)cc(CC)c1-c1c(OC(=O)C(C)(C)C)n2n(c1=O)CCOCC2` [pinoxaden] the figure was 9.13 µM.

The values are drawn from publication PMC4613257, “Ile-1781-Leu and Asp-2078-Gly Mutations in ACCase Gene, Endow Cross-resistance to APP, CHD, and PPZ in Phalaris minor from Mexico” (International Journal of Molecular Sciences, 2015).
